Here are results for 5 molecules from US8853215B2, “Derivatives of N-acyl-N′-phenylpiperazine useful (inter alia) for the prophylaxis or treatment of diabetes” (Takeda Pharmaceutical Company Limited, priority 2009, dated 2014).

For one experiment, the target named is human RBP4 (Homo sapiens (Human), UniProt P02753). Nature of the experiment: Binding assay by Retinol-RBP4-TTR ELISA. As to conditions: for IC50: retinol 50 nM, His-tagged human RBP4, biotinylated human TTR, read-out: human RBP4 binding inhibitory activity (IC50 nM). A digest of the protocol: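 Biotinylated human TTR was captured on streptavidin plates, then His-tagged human RBP4 was added with compound premixed with 50 nM retinol (8 doses). Binding ran 2 h at room temperature in 50 mM Tris-HCl, 150 mM NaCl, 0.005% Tween 20, 1 mM DTT, 0.1% BSA, read by luminescence. Inhibition was scaled between retinol+DMSO and retinol-free controls, and IC50 fitted.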

Experiment [1] deals with RBP4 (Rattus norvegicus (Rat), UniProt P04916). Nature of the experiment: Single administration test in Wistar fatty rats, plasma RBP4 by ELISA. The class given is in vivo. The note with it: male Wistar fatty rats, 10 mg/kg oral single dose, mean±SD; for RBP4 (% of initial/Control) 0 hr: 0 hr (just before the administration); for RBP4 (% of initial/Control) 4 hr: 4 hr after administration; for RBP4 (% of initial/Control) 7 hr: 7 hr after administration; for RBP4 (% of initial/Control) 24 hr: 24 hr after administration. Here is the method: The action of the compounds of the present invention to lower plasma RBP4 level was evaluated using the animal model shown below.
Male Wistar fatty rats (fa/fa) were bred in Takeda Pharmaceutical Company Limited and maintained on normal diet (CE2, CLAE Japan, Inc.) and tap water. Animals were housed in a temperature-controlled room adjusted to a 12-hour light/12-hour dark cycle beginning at 7:00 and 19:00, respectively. All procedures were conducted according to the experimental animal care use committee of Takeda Pharmaceutical Company.
(§1) Male 13-43-week-old Wistar fatty rats were divided into groups randomly. Compounds were suspended in 0.5% (w/v) methylcellulose in water and given orally to Wistar fatty rats at a dose of 10 mg/10 mL/kg of body weight (3-5 rats per group). Blood samples were obtained from tail vein with sodium heparin as an anticoagulant at time 0 hr (just before the administration), 4 hr, 7 hr, and 24 hr after the administration, followed by plasma separation by centrifugation. Plasma RBP4 levels were measured by enzyme-linked immunosorbent assay described in the following section.
(§2) Plasma samples were analyzed in duplicate for RBP4 by an enzyme-linked immunosorbent assay. Mouse recombinant RBP4 (Takeda Pharmaceutical Company Limited) was used as standards, and the assay range was 0.313-20 ng/ml. Samples were diluted 10,000-fold with phosphate-buffered saline (PBS) (Sigma) containing 10% (w/v) BlockAce (Dainippon Sumitomo Pharma Co., Ltd). Rabbit anti-RBP4 polyclonal antibody (100 μL/well of 50 μg/mL, Hokudo Co, Ltd) was incubated in a 96-well plate (Nalge Nunc International K.K.) for overnight at 4° C. Subsequently, the plates were washed with PBS-T (Wako Pure Chemical Industries, Ltd.) and blocked with PBS containing 25% BlockAce for 1 hr at room temperature. After another washing with PBS-T, samples and standards were applied to the well, and the plates were incubated for 2 hr at room temperature. After a washing the wells, peroxidase-labeled (Dojindo Laboratories) anti-RBP4 (100 μL/well) was added to the wells, and then the plates were incubated for 1 hr at room temperature. After a final washing with PBS-T, substrate solution 3,3,5,5-tetramethylbenzidine (Sigma) was added to the wells, and the plates were placed in the dark for 5-20 min at room temperature. The reaction was stopped with 0.5 M sulphuric acid and the optical density was measured with a spectrophotometer at 450 nm. The changes in plasma RBP4 levels were expressed as % of initial/Control. All data are presented as mean±SD.
On the technique in general: ELISA stands for enzyme-linked immunosorbent assay.

The subject of a further experiment is Zucker fatty rats. Briefly: Repeated drug administration test in Zucker fatty rats, plasma glucose and glycosylated hemoglobin. The experiment is classed as in vivo, Zucker fatty rats (fa/fa). The protocol: The effect of the compound of the present invention on plasma levels of glucose and glycosylated hemoglobin were evaluated using the animal model shown below.
Male Zucker fatty rats (fa/fa) and their lean littermates (Fa/?) were bred in Takeda Pharmaceutical Company Limited and maintained on normal diet (CE2, CLAE Japan, Inc.) and tap water. Animals were housed in a temperature-controlled room adjusted to a 12-hour light/12-hour dark cycle beginning at 7:00 and 19:00, respectively. All procedures were conducted according to the experimental animal care use committee of Takeda Pharmaceutical Company Limited.
From 8 weeks of age, Zucker fatty rats were maintained on a high fat diet (D06110702, 20 kCal % fat) (LSG Corporation, Japan). A compound was suspended in 0.5% (w/v) methylcellulose in water and given orally to rats at a volume of 5 mL/kg of body weight. After 4 days of pre-administration of 0.5% (w/v) methylcellulose, rats were divided based on body weight, glycosylated hemoglobin, and plasma glucose (PG) (n=6 each). Drug administration was started at 15 weeks of age and a drug (10 mg/kg) was administered once a day for 28 days.
Before and 28 days after the administration, blood samples were obtained from tail vein with sodium heparin as an anticoagulant, followed by plasma separation by centrifugation. Plasma glucose (PG) levels were measured enzymatically by an Autoanalyzer 7180 (Hitachi, Japan). Glycosylated hemoglobin levels were analyzed by a high performance liquid chromatography-based method using an automated analyzer HLC-723 or HLC-723 G7 (Tosoh, Japan). The changes in glycosylated hemoglobin were calculated by subtracting the initial value from final value.

The target of experiment [2] is RBP4 (Mus musculus (Mouse), UniProt Q00724). Nature of the experiment: Single administration test in mice, plasma RBP4 by ELISA. The class given is in vivo. As to conditions: male C57BL/6J or ICR mice, 50 mg/kg oral single dose, mean±SD. Here is the method: The action of the compounds of the present invention to reduce plasma RBP4 level was evaluated using the animal model shown below.
Male C57BL/6J and ICR mice were purchased from Charles River (Japan) and maintained on a normal diet (CE2, CLAE Japan, Inc.) and tap water. Animals were housed in a temperature-controlled room adjusted to a 12-hour light/12-hour dark cycle beginning at 7:00 and 19:00, respectively. All procedures were conducted according to the experimental animal care use committee of Takeda Pharmaceutical Company.
as §1, with “Male 6-12-week-old C57BL/6J or ICR mice were housed individually and fed CE2 for 4-6 days. After acclimatization, mice” for “Male 13-43-week-old Wistar fatty rats”, “groups based on their body weight.” for “groups randomly.”, “to mice” for “to Wistar fatty rats”, “of 50” for “of 10”, “weight (three to five mice” for “weight (3-5 rats”, “from orbital” for “from tail”
as §2, with “Company)” for “Company Limited)”

Where [3] appears, read: Zucker fatty rats, 10 mg/kg, 28 days repeated administration.

For orientation: IC50 means the concentration that gives 50% inhibition. With `CC(C)(C)c1ccccc1N1CCN(C(=O)NCC(=O)O)CC1` [Example 6, N-{[4-(2-tert-Butylphenyl)piperazin-1-yl]carbonyl}glycine], the IC50 at human RBP4 turned out to be 540 nM. At RBP4 [1], the “RBP4 (% of initial/Control) 0 hr” value is listed as 100 ± 14.1 % of initial/Control, the “RBP4 (% of initial/Control) 4 hr” value is listed as 36.2 ± 5.0 % of initial/Control, the “RBP4 (% of initial/Control) 7 hr” value is on record as 27.4 ± 5.9 % of initial/Control and the “RBP4 (% of initial/Control) 24 hr” value is listed as 104.5 ± 4.4 % of initial/Control. Also, in the experiment on Zucker fatty rats (Zucker fatty rats on high fat diet, 10 mg/kg oral once a day for 28 days, change = final minus initial value, mean±SD), the “Glycosylated hemoglobin (%)” value is 0.95 ± 0.67%. The “PG (% of initial/Vehicle)” value in the experiment with Zucker fatty rats (Zucker fatty rats on high fat diet, 10 mg/kg oral once a day for 28 days, plasma glucose, mean±SD) was 70.0 ± 19.7 % of initial/Vehicle. For the same molecule, in the experiment on Zucker fatty rats (setting [3]), the “effect on PG (in words)” value is reported as “decreased PG significantly” and the “effect on glycosylated hemoglobin (in words)” value is on record as “tended to decrease glycosylated hemoglobin (not significant)”.

For `CC(C)(C)c1ccccc1N1CCN(C(=O)CC(=O)O)CC1` [Example 9, 3-[4-(2-tert-Butylphenyl)piperazin-1-yl]-3-oxopropanoic acid], the IC50 on human RBP4 was found to be 54 nM. On RBP4 [1], the “RBP4 (% of initial/Control) 0 hr” value is 100.0 ± 8.5 % of initial/Control, the “RBP4 (% of initial/Control) 4 hr” value is given as 49.6 ± 1.3 % of initial/Control, the “RBP4 (% of initial/Control) 7 hr” value is reported as 49.2 ± 1.9 % of initial/Control and the “RBP4 (% of initial/Control) 24 hr” value is listed as 114.3 ± 6.0 % of initial/Control.

Turning to `CC(C)(C)c1ccccc1N1CCN(C(=O)CCC(=O)NS(C)(=O)=O)CC1` [Example 55, 4-(4-(2-tert-Butylphenyl)piperazin-1-yl)-N-(methylsulfonyl)-4-oxobutanamide], the IC50 at human RBP4 was 64 nM. Also, at RBP4 [1], the “RBP4 (% of initial/Control) 0 hr” value is listed as 100.0 ± 5.3 % of initial/Control, the “RBP4 (% of initial/Control) 4 hr” value was 36.8 ± 5.8 % of initial/Control, the “RBP4 (% of initial/Control) 7 hr” value is given as 31.6 ± 7.7 % of initial/Control and the “RBP4 (% of initial/Control) 24 hr” value is given as 54.4 ± 14.3 % of initial/Control.

For the molecule `CC(C)(C)c1ccccc1N1CCN(C(=O)Cc2nnn[nH]2)CC1` [Example 58, 1-(4-(2-tert-Butylphenyl)piperazin-1-yl)-2-(1H-tetrazol-5-yl)ethanone], the 50% inhibitory concentration (IC50) on human RBP4 stood at 300 nM. Further, at RBP4 [1], the “RBP4 (% of initial/Control) 0 hr” value was 100.0 ± 8.7 % of initial/Control, the “RBP4 (% of initial/Control) 4 hr” value was 76.2 ± 11 % of initial/Control, the “RBP4 (% of initial/Control) 7 hr” value is 89.1 ± 15.4 % of initial/Control and the “RBP4 (% of initial/Control) 24 hr” value is listed as 97.9 ± 10.4 % of initial/Control.

In the case of `CC(C)(C)c1ccccc1N1CCN(C(=O)c2cc(OCC(=O)O)no2)CC1` [Example 216, [(5-{[4-(2-tert-Butylphenyl)piperazin-1-yl]carbonyl}isoxazol-3-yl)oxy]acetic acid], the inhibition at 10 µM on human RBP4 (at 10 μM compound, read-out: human RBP4 binding inhibitory activity(% at 10 μM)) stood at 100%. Besides, the “RBP4 (% of initial/Control) 0 hr” value on RBP4 [2] (0 hr (just before the administration)) is on record as 100.0 ± 16.6 % of initial/Control. At RBP4 [2] (4 hr after administration), the “RBP4 (% of initial/Control) 4 hr” value is given as 43.4 ± 4.7 % of initial/Control. The “RBP4 (% of initial/Control) 7 hr” value at RBP4 [2] (7 hr after administration) was 36.9 ± 1.0 % of initial/Control. In addition, the “RBP4 (% of initial/Control) 24 hr” value at RBP4 [2] (24 hr after administration) is listed as 66.4 ± 28.1 % of initial/Control.
